{"source": "patent US20180066295A1", "about": "“DEAMINATION OF ORGANOPHOSPHORUS-NUCLEOSIDES” (INSTITUT UNIV. DE CIÈNCIA I TECNOLOGIA, S. A., priority 2015, published 2018)", "key": {"[1]": {"system": "cytidine deaminase", "conditions": "37° C.; for yield of deaminated product (HPLC, crude mixture): 5 hours", "procedure": "The reaction was performed at 37° C. during […] and stopped with HCl. Then, the crude reaction was filtered through a 10 KDa membrane, and a portion was diluted and analyzed by HPLC under UV-DAD (ultraviolet-diode array detection). Product identification was performed by comparison to a standard sample.\nAfter 5 hours, the reaction was stopped with HCl and a portion of the reaction was diluted and filtered for HPLC and MS analysis."}, "[2]": {"biological_target": "T1, adenosine deaminase (Homo sapiens, UniProt P00813)", "T1 sequence (P00813 1-363)": "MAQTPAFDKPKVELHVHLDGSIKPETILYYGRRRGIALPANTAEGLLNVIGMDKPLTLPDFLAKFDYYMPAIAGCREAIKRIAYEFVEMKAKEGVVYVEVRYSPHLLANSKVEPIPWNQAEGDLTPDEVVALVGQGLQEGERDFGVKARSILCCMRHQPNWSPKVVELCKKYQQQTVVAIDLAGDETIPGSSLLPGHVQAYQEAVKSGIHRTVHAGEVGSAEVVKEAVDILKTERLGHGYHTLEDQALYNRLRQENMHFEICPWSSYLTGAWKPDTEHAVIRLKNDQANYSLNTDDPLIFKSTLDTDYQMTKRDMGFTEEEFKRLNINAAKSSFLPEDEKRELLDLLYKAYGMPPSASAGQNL", "conditions": "commercially available purified enzyme, analytical conditions; cited from earlier work"}, "[3]": {"conditions": "20 mM substrate, KH2PO4 100 mM pH 7.0, 90 AU cytidine deaminase"}, "[4]": {"conditions": "100 mM substrate, KH2PO4 100 mM pH 7.0, 36-240 AU cytidine deaminase"}}, "note": "Where a name gives a salt, the structure may show the parent alone. Read-outs that look alike come from different tables or passages of the source."}
{"smiles": "COC(=O)[C@H](CC(C)C)NP(=O)(OC[C@H]1O[C@@H](n2ccc(N)nc2=O)[C@H](O)[C@@H]1O)Oc1ccccc1", "note": "(stereo partly drawn) [compound 10, methyl ((((2R,3S,4R,5R)-5-(4-amino-2-oxopyrimidin-1(2H)-yl)-3,4-dihydroxytetrahydrofuran-2-yl)methoxy)(phenoxy)phosphoryl)-L-leucinate hydrochloride]", "values": [{"measurement": "yield of deaminated product (HPLC, crude mixture)", "setting": "[1]; [3]", "value": "> 70", "unit": "%"}]}
{"smiles": "COC(=O)[C@@H](NP(=O)(OC[C@H]1O[C@@H](n2ccc(N)nc2=O)[C@H](O)[C@@H]1O)Oc1ccccc1)C(C)C", "note": "(stereo partly drawn) [compound 12, methyl ((((2R,3S,4R,5R)-5-(4-amino-2-oxopyrimidin-1 (2H)-yl)-3,4-dihydroxytetrahydrofuran-2-yl)methoxy)(phenoxy)phosphoryl)-L-valinate hydrochloride]", "values": [{"measurement": "yield of deaminated product (HPLC, crude mixture)", "setting": "[1]; [3]", "value": "> 70", "unit": "%"}]}
{"smiles": "CC(C)OC(=O)[C@H](C)NP(=O)(OC[C@H]1O[C@@H](n2ccc(N)nc2=O)[C@H](O)[C@@H]1O)Oc1ccccc1", "note": "(stereo partly drawn) [compound 14, isopropyl ((((2R,3S,4R,5R)-5-(4-amino-2-oxopyrimidin-1(2H)-yl)-3,4-dihydroxytetrahydrofuran-2-yl)methoxy)(phenoxy)phosphoryl)-L-alaninate hydrochloride]", "values": [{"measurement": "yield of deaminated product (HPLC, crude mixture)", "setting": "[1]; [3]", "value": "quantitatively"}]}
{"smiles": "COC(=O)[C@H](C)NP(=O)(OC[C@H]1O[C@@H](n2ccc(N)nc2=O)[C@H](O)[C@@H]1O)Oc1ccccc1.Cl", "note": "(stereo partly drawn) [compound 14-Me, methyl ((((2R,3S,4R,5R)-5-(4-amino-2-oxopyrimidin-1 (2H)-yl)-3,4-dihydroxytetrahydrofuran-2-yl)methoxy)(phenoxy)phosphoryl)-L-alaninate hydrochloride]", "values": [{"measurement": "yield of deaminated product (HPLC, crude mixture)", "setting": "[1]; [3]", "value": "> 80", "unit": "%"}]}
{"smiles": "COC(=O)[C@H](CC(C)C)NP(=O)(OC[C@H]1O[C@@H](n2ccc(N)nc2=O)C(F)(F)[C@@H]1O)Oc1ccccc1", "note": "(stereo partly drawn) [compound 16, methyl ((((2R,3R,5R)-5-(4-amino-2-oxopyrimidin-1(2H)-yl)-4,4-difluoro-3-hydroxytetrahydrofuran-2-yl)methoxy)(phenoxy)phosphoryl)-L-leucinate]", "values": [{"measurement": "yield of deaminated product (HPLC, crude mixture)", "setting": "[1]; [4]", "value": "quantitatively"}]}
{"smiles": "COC(=O)[C@@H](NP(=O)(OC[C@H]1O[C@@H](n2ccc(N)nc2=O)C(F)(F)[C@@H]1O)Oc1ccccc1)C(C)C", "note": "(stereo partly drawn) [compound 17, methyl ((((2R,3R,5R)-5-(4-amino-2-oxopyrimidin-1 (2H)-yl)-4,4-difluoro-3-hydroxytetrahydrofuran-2-yl)methoxy)(phenoxy)phosphoryl)-L-valinate]", "values": [{"measurement": "yield of deaminated product (HPLC, crude mixture)", "setting": "[1]; [4]", "value": "quantitative yield"}]}
{"smiles": "CC(C)OC(=O)[C@H](C)NP(=O)(OC[C@H]1O[C@@H](n2ccc(N)nc2=O)C(F)(F)[C@@H]1O)Oc1ccccc1", "note": "(stereo partly drawn) [compound 18, isopropyl ((((2R,3R,5R)-5-(4-amino-2-oxopyrimidin-1 (2H)-yl)-4,4-difluoro-3-hydroxytetrahydrofuran-2-yl)methoxy)(phenoxy)phosphoryl)-L-alaninate]", "values": [{"measurement": "yield of deaminated product (HPLC, crude mixture)", "setting": "[1]; [4]", "value": "quantitative yield"}]}
{"smiles": "COC(=O)[C@@H](NP(=O)(OC[C@H]1O[C@@H](n2cnc(N)nc2=O)C[C@@H]1O)Oc1ccccc1)C(C)C", "note": "(stereo partly drawn) [compound 21, methyl ((((2R,3S,5R)-5-(4-amino-2-oxo-1,3,5-triazin-1(2H)-yl)-3-hydroxytetrahydrofuran-2-yl)methoxy)(phenoxy)phosphoryl)-L-valinate]", "values": [{"measurement": "yield of deaminated product (HPLC)", "setting": "[1]; pH 6, 13 mM substrate, KH2PO4 100 mM, 66 AU cytidine deaminase, 24 hours", "value": "higher than 90%"}, {"measurement": "conversion into deaminated product", "setting": "[1]; pH 7, 13 mM substrate, KH2PO4 100 mM, 66 AU cytidine deaminase, 24 hours", "value": "quantitatively"}, {"measurement": "conversion into deaminated product", "setting": "[1]; pH 8, 13 mM substrate, KH2PO4 100 mM, 66 AU cytidine deaminase, 24 hours", "value": "quantitatively"}]}
{"smiles": "Nc1ncnc2c1ncn2[C@H]1C[C@H](O)[C@@H](CO)O1", "note": "[deoxyadenosine]", "values": [{"measurement": "deamination yield", "setting": "[2]", "value": 59, "unit": "%"}]}
